US4372877A, “Di(acylperoxy)-1,4-cyclohexane dimethanol-bis-carbonates” (priority 1981, dated 1983)

Legend:
[1] = Hot Block Gel Tests With Polyester Resin; conditions: block 180 °F, 1% wt peroxide (100% purity basis)
Text: As mentioned above, the new molecules can be used for curing of polyester resins and this utility is illustrated in Tables V and VI below. Typical prior art peroxy dicarbonates and carbonates of the prior art are included for comparison.
Hot Block Gel Tests With Polyester Resin
Resin: MR 941 (U.S.S. Chemical - orthophthalic)
Concentrations of peroxide adjusted to 100% purity basis, 1% wt

[2] = Storage stability at 40 °C; assay type: physicochemical; parameters: A.O.: unit not given here
Experimental: APCD from Example 1 is selected as representative and was tested over a period of 89 days at 40° C. Representative peroxy carbonate and dicarbonates of the prior art are also included for comparison.
Storage Stability at 40° C.

[3] = Vinyl chloride suspension polymerization (% conversion)
Experimental: As mentioned, the instant bis-carbonates are useful for the initiation of monomers having polymerizable ethylenic or vinyl unsaturation, such as ethylene, styrene, methyl methacrylate and vinyl chloride and copolymers thereof. The data was generated with suspension polymerization performed in 12 ounce pop bottles using uninhibited monomer. Duplicate bottles were analyzed at each time interval for which data is listed. Bottles were frozen before venting off of excess monomer. Mixing speed of the pop bottles was 42 rpm. The water to vinyl chloride monomer ratio was 2.50. Each pop bottle contained 0.35 gms Dow Methocel 90 HG, 100 cps suspension agent per 100 gms vinyl chloride monomer.

[4] = Ten-hour half-life temperature (0.1 M in benzene); assay type: physicochemical
Text: Table I provides the ten-hour half-life of the compounds of the instant invention synthesized in Examples 1-3.
Peroxide (0.1 M in benzene)

[5] = disclosed in prior art U.S. patents; cited from earlier work
[6] = 55 °C, 5.5 Hrs., 2.01 × 10^-4 moles/100g VCM (APCD 0.070, LPCD 0.126, BPCD 0.095 % wt)
[7] = 55 °C, 5.5 Hrs., 2.30 × 10^-4 moles/100g VCM (APCD 0.080, LPCD 0.145, BPCD 0.109 % wt)
[8] = 60 °C, 5.0 Hrs., 1.15 × 10^-4 moles/100g VCM (APCD 0.040, LPCD 0.072, BPCD 0.054 % wt)
[9] = 60 °C, 5.0 Hrs., 1.45 × 10^-4 moles/100g VCM (APCD 0.051, LPCD 0.091 % wt)

Row | SMILES | Exotherm Time ([1]; Table V) | Gel Time ([1]; Table V) | Exotherm Time ([1]; Table VI) | Gel Time ([1]; Table VI) | % Purity ([2]; 0 days elapsed) | A.O. ([2]; 0 days elapsed) | % Purity ([2]; 7 days elapsed) | A.O. ([2]; 7 days elapsed) | % Purity ([2]; 14 days elapsed) | A.O. ([2]; 14 days elapsed) | % Purity ([2]; 28 days elapsed) | A.O. ([2]; 28 days elapsed) | % Purity ([2]; 59 days elapsed) | A.O. ([2]; 59 days elapsed) | % Purity ([2]; 89 days elapsed) | A.O. ([2]; 89 days elapsed) | Ten-Hour Half-Life Temperature [4] | further results
1 | CC(=O)OOC(=O)OCC1CCC(COC(=O)OOC(C)=O)CC1 (stereo not drawn) [APCD, di(acetylperoxy)-1,4-cyclohexane dimethanol bis-carbonate] | 4.05 min | 3.38 min | 4.20 min | 3.58 min | 99.6% | 9.15 | 99.5% | 9.14 | 98.3% | 9.03 | 97.7% | 8.98 | 95.4% | 8.77 | 93.4% | 8.58 | 55.2 °C | % Conversion ([3]; 55 °C, 1.5 Hrs., 2.23 × 10^-4 moles/100g VCM (APCD 0.0775 % wt)): 13.6%; % Conversion ([3]; 55 °C, 3.5 Hrs., 2.23 × 10^-4 moles/100g VCM (APCD 0.0775 % wt)): 42.0%; % Conversion ([3]; 55 °C, 5.5 Hrs., 0.85 × 10^-4 moles/100g VCM (APCD 0.030 % wt)): 35.7%; % Conversion ([3]; 55 °C, 5.5 Hrs., 1.15 × 10^-4 moles/100g VCM (APCD 0.040 % wt)): 45.6%; % Conversion ([3]; 55 °C, 5.5 Hrs., 1.45 × 10^-4 moles/100g VCM (APCD 0.051 % wt)): 55.7%; % Conversion ([3]; 55 °C, 5.5 Hrs., 1.72 × 10^-4 moles/100g VCM (APCD 0.060, BPCD 0.081 % wt)): 60.5%; % Conversion [3, 6]: 71.5%; % Conversion ([3]; 55 °C, 5.5 Hrs., 2.23 × 10^-4 moles/100g VCM (APCD 0.0775 % wt)): 80.3%; % Conversion [3, 7]: 83.0%; % Conversion ([3]; 60 °C, 1.5 Hrs., 1.36 × 10^-4 moles/100g VCM (APCD 0.0475 % wt)): 15.1%; % Conversion ([3]; 60 °C, 3.5 Hrs., 1.36 × 10^-4 moles/100g VCM (APCD 0.0475 % wt)): 46.9%; % Conversion ([3]; 60 °C, 5.0 Hrs., 0.85 × 10^-4 moles/100g VCM (APCD 0.030, BPCD 0.040 % wt)): 48.5%; % Conversion [3, 8]: 65.9%; % Conversion ([3]; 60 °C, 5.0 Hrs., 1.36 × 10^-4 moles/100g VCM (APCD 0.0475 % wt)): 83.1%; % Conversion [3, 9]: 86.6%
2 | CC(C)(C)C1CCC(OC(=O)OOC(=O)OC2CCC(C(C)(C)C)CC2)CC1 (stereo not drawn) [Di(4-t-butylcyclohexyl) peroxydicarbonate] | 3.39 min | 2.46 min | 3.58 min | 2.74 min | 97.8% | 3.92 | 96.4% | 3.86 | 96.4% | 3.86 | 95.2% | 3.82 | 93.0% | 3.73 | 93.2% | 3.74 | 43.0 °C | 
3 | CCCCCCCCCCCC(=O)OOC(=O)OCC1CCC(COC(=O)OOC(=O)CCCCCCCCCCC)CC1 (stereo not drawn) [LPCD, di(lauroylperoxy)-1,4-cyclohexane dimethanol bis-carbonate] |  |  | 4.96 min | 4.05 min |  |  |  |  |  |  |  |  |  |  |  |  | 51.4 °C | % Conversion [3, 6]: 60.9%; % Conversion [3, 7]: 72.0%; % Conversion [3, 8]: 51.4%; % Conversion [3, 9]: 65.4%
4 | CCCCCCCCCCCCCCCCCCOC(=O)OOC(C)=O [acetyl peroxystearyl carbonate] | 4.05 min | 3.13 min |  |  | 94.1% | 4.04 | 93.5% | 4.01 | 93.1% | 4.00 | 91.5% | 3.92 | 87.9% | 3.77 | 78.8% | 3.38 |  | 
5 | CC(C)(COC(=O)OOC(=O)OCC(C)(C)c1ccccc1)c1ccccc1 [di(2-methyl-2-phenylpropyl) peroxy dicarbonate] |  |  |  |  |  |  |  |  |  |  |  |  |  |  |  |  |  | stability at room/ambient temperature [5]: ambient temperature stability
6 | O=C(OCCOc1ccccc1)OOC(=O)OCCOc1ccccc1 [di(phenoxyethyl) peroxydicarbonate] | 5.62 min | 5.45 min |  |  | 97.4% | 4.31 | 94.4% | 4.17 | 93.3% | 4.12 | 91.1% | 4.03 | 84.7% | 3.74 | 73.1% | 3.23 | 42.2 °C | 
7 | O=C(OOC(=O)OC1CCCCCCCCCCC1)OC1CCCCCCCCCCC1 [dicyclododecyl peroxy dicarbonate] |  |  |  |  |  |  |  |  |  |  |  |  |  |  |  |  |  | stability at room/ambient temperature [5]: stability that permits storage at room temperature
